How the values were obtained:
Experiment in all cases: selective drug sensitivity score (sDSS, relative to normal bone marrow) (sDSS (score)); higher = more potent and effective on the cell line relative to normal bone marrow cells
Conditions in all cases: 72 h
NALM-16 = system: NALM-16
KOPN-8 = system: KOPN-8
COG-LL-317 = system: COG-LL-317
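Note: ALL cell lines in 384-well plates, five doses spanning 10,000-fold, each plate scaled between vehicle and 100 µmol/L benzalkonium chloride controls, sDSS an adapted area-under-curve metric.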

Structure (SMILES)	selective drug sensitivity score (NALM-16)	selective drug sensitivity score (KOPN-8)	selective drug sensitivity score (COG-LL-317)
CC(C)NC[C@@H](C(=O)N1CCN(c2ncnc3c2[C@H](C)C[C@H]3O)CC1)c1ccc(Cl)cc1 [Ipatasertib] (top concentration 10000 nM)	1.7	4.3	11
CCC(C)n1ncn(-c2ccc(N3CCN(c4ccc(OCC5COC(Cn6cncn6)(c6ccc(Cl)cc6Cl)O5)cc4)CC3)cc2)c1=O (stereo not given) [Itraconazole] (top concentration 5000 nM)	-4.32	13.1	-2.12
Cc1sc2c(c1C)C(c1ccc(Cl)cc1)=N[C@@H](CC(=O)OC(C)(C)C)c1nnc(C)n1-2 [JQ1] (top concentration 10000 nM)	2.02	11.7	6.62
CCNC(=O)c1noc(-c2cc(C(C)C)c(O)cc2O)c1-c1ccc(CN2CCOCC2)cc1 [Luminespib] (top concentration 1000 nM)	-2.9	6.7	7.4
O=C(c1cccc(Cl)c1F)N1CCN(Cc2cccc(Nc3nccs3)n2)CC1 [MK-8745] (top concentration 10000 nM)	12.4	13.2	12.9
Cc1ccc(NC(=O)c2ccc(CN3CCN(C)CC3)cc2)cc1Nc1nc(-c2cccnc2)cs1 [Masitinib] (top concentration 10000 nM)	-4.38	-1.58	3.32
CCN(CC)CCCC(C)Nc1c2ccc(Cl)cc2nc2ccc(OC)cc12 (stereo not given) [Mepacrine] (top concentration 50000 nM)	-7.9	0.1	-0.5
COc1ccc(-c2ccc3ncc4c(c3c2)n(-c2ccc(N3CCNCC3)c(C(F)(F)F)c2)c(=O)n4C)cn1 [NVP-BGT226] (top concentration 1000 nM)	-0.18	9.52	0.72
COc1nc(N)nc2c1ncn2[C@@H]1O[C@H](CO)[C@@H](O)[C@@H]1O [Nelarabine] (top concentration 10000 nM)	-9.52	-7.82	4.58
Cc1cn(-c2cc(NC(=O)c3ccc(C)c(Nc4nccc(-c5cccnc5)n4)c3)cc(C(F)(F)F)c2)cn1 [Nilotinib] (top concentration 10000 nM)	0	9.7	0
NC(=O)c1cccc2cn(-c3ccc(C4CCCNC4)cc3)nc12 (stereo not given) [Niraparib] (top concentration 10000 nM)	-2.82	16.1	7.88
COc1ccc(C[C@H](NC(=O)[C@H](C)NC(=O)CN2CCOCC2)C(=O)N[C@@H](Cc2ccccc2)C(=O)[C@@]2(C)CO2)cc1 [ONX-0914] (top concentration 10000 nM)	-2	1.5	4.7
CC(=O)c1cnc2ccc(-c3cc(Cl)c(O)c(Cl)c3)nc2c1N[C@H]1CC[C@H](CN(C)C)CC1 [OTS167] (top concentration 1000 nM)	-4.52	5.68	3.58
COC(=O)C[C@](O)(CCCC(C)(C)O)C(=O)O[C@@H]1C(OC)=C[C@]23CCCN2CCc2cc4c(cc2[C@H]13)OCO4 [Omacetaxine] (top concentration 10000 nM)	-8.18	5.02	7.12
C1=N/C2=N/c3ccc(OCCN4CCCC4)c(c3)COC/C=C/COCc3cccc(c3)C(=C1)N2 [Pacritinib] (top concentration 10000 nM)	-8.2	-4.7	-8.3
Cc1[nH]c2ccccc2c1CCNCc1ccc(/C=C/C(=O)NO)cc1 [Panobinostat] (top concentration 1000 nM)	2.94	18.2	6.34
Cc1ccc(Nc2nccc(N(C)c3ccc4c(C)n(C)nc4c3)n2)cc1S(N)(=O)=O [Pazopanib] (top concentration 10000 nM)	-1.26	5.64	-1.26
Nc1nc2[nH]cc(CCc3ccc(C(=O)N[C@@H](CCC(=O)O)C(=O)O)cc3)c2c(=O)[nH]1 [Pemetrexed] (top concentration 10000 nM)	7.38	30.2	25.1
Cc1ccc(C(=O)Nc2ccc(CN3CCN(C)CC3)c(C(F)(F)F)c2)cc1C#Cc1cnc2cccnn12 [Ponatinib] (top concentration 1000 nM)	-0.08	27.1	-1.98
C[C@]12C=CC(=O)C=C1CC[C@@H]1[C@@H]2[C@@H](O)C[C@@]2(C)[C@H]1CC[C@]2(O)C(=O)CO [Prednisolone] (top concentration 10000 nM)	-3	22.6	2.6

Structure (SMILES)	selective drug sensitivity score (NALM-16)	selective drug sensitivity score (KOPN-8)	selective drug sensitivity score (COG-LL-317)
CC(C)(C)c1cc(NC(=O)Nc2ccc(-c3cn4c(n3)sc3cc(OCCN5CCOCC5)ccc34)cc2)no1 [Quizartinib] (top concentration 1000 nM)	-1.32	7.58	-0.02
Nc1cc(F)ccc1NC(=O)/C=C/c1cnn(C/C=C/c2ccccc2)c1 [RGFP966] (top concentration 10000 nM)	6.24	11.5	16.6
CNC(=O)c1cc(Oc2ccc(NC(=O)Nc3ccc(Cl)c(C(F)(F)F)c3)c(F)c2)ccn1 [Regorafenib] (top concentration 10000 nM)	1.54	10.9	2.54
CN(C)Cc1ccc(S(=O)(=O)n2ccc(/C=C/C(=O)NO)c2)cc1 [Resminostat] (top concentration 10000 nM)	0.24	10.1	5.14
COc1cc(OC)c(/C=C/S(=O)(=O)Cc2ccc(OC)c(NCC(=O)O)c2)c(OC)c1 [Rigosertib] (top concentration 10000 nM)	12.8	18.4	14.3
COc1ccc(CCc2nc3cc(-c4c(C)noc4C)ccc3n2C[C@H](C)N2CCOCC2)cc1Cl [SGC-CBP30] (top concentration 25000 nM)	0.48	6.18	5.98
CCS(=O)(=O)c1cccc(-c2cc(C(=O)NC3CCN(C)CC3)c(C)c3[nH]c4ncc(C)cc4c23)c1 [TAK-901] (top concentration 1000 nM)	0.16	10.8	11.7
Nc1nc(NC2CC2)cc(-c2cccc(Cl)c2Cl)n1 [TH588] (top concentration 25000 nM)	5.32	7.22	7.72
CC(=O)Nc1ccc(C(=O)Nc2ccccc2N)cc1 [Tacedinaline] (top concentration 1000 nM)	-0.02	15.5	-0.02
Cn1ncnc1[C@H]1c2n[nH]c(=O)c3cc(F)cc(c23)N[C@@H]1c1ccc(F)cc1 [Talazoparib] (top concentration 1000 nM)	-2.82	27.5	19.7
COc1cccc2c1c(O)c(C(=O)N(C)c1ccc(C(F)(F)F)cc1)c(=O)n2C [Tasquinimod] (top concentration 10000 nM)	-0.42	-0.42	0.28
Nc1nc2[nH]cnc2c(=S)[nH]1 [Thioguanine] (top concentration 10000 nM)	7.74	13.2	23
CC#CC(=O)N1CC[C@@H](n2c(=O)n(-c3ccc(Oc4ccccc4)cc3)c3c(N)ncnc32)C1 [Tirabrutinib] (top concentration 1000 nM)	0	4.1	0
CC(C)C[C@@H](C(=O)N[C@H](C(=O)OC1CCCC1)c1ccccc1)[C@H](O)C(=O)NO [Tosedostat] (top concentration 10000 nM)	3.06	10.8	14.9
CS(=O)(=O)c1ccc(-c2cnc(N)c(C(=O)Nc3ccccc3)n2)cc1 [VE-821] (top concentration 10000 nM)	-0.66	8.74	12.7
CNC(=O)c1ccccc1Nc1cc(Nc2ccc(N3CCOCC3)cc2OC)ncc1C(F)(F)F [VS-4718] (top concentration 10000 nM)	0	-3.1	-0.8
Cc1cccc(-c2[nH]c(CNc3ccccc3F)nc2-c2ccc3ncnn3c2)n1 [Vactosertib (TEW-7197)] (top concentration 2500 nM)	-0.4	-0.5	-0.3
O=C(/C=C\n1cnc(-c2cc(C(F)(F)F)cc(C(F)(F)F)c2)n1)NNc1ccccn1 [Verdinexor] (top concentration 1000 nM)	-0.36	8.34	12.5
CC[C@@H]1C(=O)N(C)c2cnc(Nc3ccc(C(=O)N[C@H]4CC[C@H](N5CCN(CC6CC6)CC5)CC4)cc3OC)nc2N1C(C)C [Volasertib] (top concentration 1000 nM)	11.3	12.4	16.7
O=C(CCCCCCC(=O)Nc1ccccc1)NO [Vorinostat] (top concentration 10000 nM)	1.5	13.4	8.2

From the supplement of paper PMC8967900
